# Source: US20070037887A1, “Blockade of mtor to prevent a hormonal adaptive response” (University of Virginia Patent Foundation, priority 2003, published 2007)
# Tests used:
# [1] = tested on: ERK1/2, Akt, p70S6K, PHAS-1 phosphorylation in LTED cells; experiment: EGF induced activation of MAP kinase, PI3 kinase and mTOR in LTED cells (Western); format: cell-based, human; conditions: pretreatment FTS 1 h, LY 294002 or rapamycin 3 h; EGF 1 μg/ml 1 h
# Description: FIG. 8 represents data showing the effect of FTS on EGF induced activation of MAP kinase, PI3 kinase, and mTOR in LTED cells. […] Cells were then harvested and cell lysate prepared. Phosphorylated and total kinases were detected by Western analysis using specific antibodies.
# The effects of the specific growth factors, EFG and IGF-1 were also examined. Serum contains multiple growth factors that activate MAP kinase and PI3 kinase either by recruitment and activation of the common mediator Ras (such as EGF) or through a direct mechanism (such as IGF-1). To further explore the site of action of FTS, EGF-induced activation of MAPK and PI3 kinase was first examined. Specific inhibitors for PI3 kinase and mammalian target of rapamycin (mTOR) were included for comparison. […] One-hour treatment was chosen as the time point allowing most efficient comparisons among molecules.
# [2] = tested on: Shc; experiment: E2-induced Shc phosphorylation in MCF-7 cells; format: cell-based, human; conditions: 10^−10 M E2 for 3 minutes
# Method: Because ERα, Shc and MAP kinase are all involved in E2 action in MCF-7 cells, upstream components responsible for Shc phosphorylation were determined by measuring the effects of PP2, ICI and PD98059 on E2-induced phosphorylation of Shc. In the presence of the inhibitors, MCF-7 cells were stimulated with vehicle or 10^−10 M E2 for 3 minutes and the status of Shc phosphorylation was examined. […] No effects of these inhibitors were apparent in the absence of E2 stimulation. […] Each of these inhibitors was capable of reducing the rate of cell proliferation in LTED cells.
# [3] = tested on: LTED cells; experiment: [3H] thymidine incorporation into DNA, LTED cells; format: cell-based, human; conditions: inhibitors of the MAP kinase pathway
# Method: (§1) FIGS. 5A & 5B represent the effect of FTS on DNA synthesis in MCF-7 (FIG. 5A) and LTED (FIG. 5B) cells. One hundred thousand cells were plated into each well of 24-well plates. Two days later, the cells were re-fed with IMEM containing 5% DCC-FBS. After another two days, cells were treated in quadruplicate with the compounds indicated for 18 hours. [^3H] thymidine (1 μCi/well) was added during the last 2 h of incubation. [^3H] thymidine incorporated into DNA was normalized by protein content.
# (§2) The inhibitory effect of FTS on cell growth may be the result of inhibition of cellular proliferation, induction of apoptosis, or both. To determine the mechanism by which FTS inhibits cell growth, FTS's effect on DNA synthesis and apoptosis was investigated. […] Estradiol (10^−10 M) increased [^3H] thymidine incorporation by 2.6 fold compared to the control level in MCF-7 cells.
# [4] = tested on: MCF-7 cells; experiment: Growth of MCF-7 cells (cell number); format: cell-based, human; conditions: E2 10^−10 M, five-day treatment
# Method: FIG. 3 represents the effect of FTS on the growth of MCF-7, LTED, and MCF-10A cells. Sixty thousand cells were plated into each well of 6-well plates. Two days later, the cells were treated in triplicate for five days with FTS at indicated concentrations. The results (mean±S.E.) are expressed as percentage of the vehicle control.
# FIG. 4 represents the effect of FTS on E2 stimulated growth of MCF-7 and LTED cells. Thirty thousand cells were plated into each well of 6-well plates. Two days later, the cells were re-fed with IMEM containing 5% DCC-FBS. After another two days, cells were treated in triplicate with estradiol (10^−10 M) plus various concentrations of FTS for five days. In LTED cells, fulvestrant (10^−9 M) was included in all wells to block the effect of residual estrogen in the culture. The results (mean±S.E.) are expressed as percentage of cell number from the wells containing E2.
# The effect of FTS on growth of breast cancer cells was examined in two different cell lines: MCF-7 wild type cells which represent a model for untreated breast cancer and LTED cells as a model of cells adapting to endocrine treatment. Cells were grown in their culture media and treated with FTS for five days. […] The effect of FTS on E2-stimulated growth of MCF-7 and LTED cells was the examined. Five-day treatment of MCF-7 cells with E2 (10^−10 M) increased cell number by 8-fold compared with the vehicle control. Addition of FTS reduced cell number in a dose-dependent manner with about 50% inhibition at the concentration of 50 μM […]. […] The extent of inhibition of E2-stimulated cell growth by FTS was similar in these two cell lines.
# [5] = tested on: MAP kinase; experiment: MAP kinase activation in LTED cells; format: cell-based, human
# Method: Upregulation of MAP kinase and PI-3-kinase could reflect either a constitutive activation of growth factor receptors, an increase in the endogenous secretion of growth factors, or other mechanisms. Inhibition of MAP kinase with a pure antiestrogen would rule out the possibility of constitutive activation of growth factor receptors or growth factor secretion. Accordingly, the pure anti-estrogen, faslodex (fulvestrant) was administered and the level of activation of MAP kinase in LTED cells was examined.
# Estrogen deprivation might trigger activation of a non-genomic, estrogen regulated, MAP kinase pathway which utilizes Shc. […] The addition of E2 stimulated MAP kinase phosphorylation in LTED cells within minutes. The increased MAP kinase phosphorylation by E2 was time and dose-dependent being greatly stimulated at 15 min and remaining elevated for at least 30 min. Maximal stimulation of MAP kinase phosphorylation was at 10^−10 M of E2.
# [6] = tested on: MCF-7 cells; experiment: [3H] thymidine incorporation into DNA, MCF-7 cells; format: cell-based, human; conditions: Estradiol 10^−10 M
# Method: as §1, §2
# [7] = tested on: mTOR-raptor complex; experiment: Coimmunoprecipitation of raptor with mTOR from 293T cells incubated with compound; format: cell-based; conditions: 293T cells incubated with 200 μM
# Method: FIG. 11A & 11B represent data showing FTS inhibits PHAS-I phosphorylation and promotes dissociation of the mTOR-raptor complex in 293T cells. 293T cells were transfected with pcDNA3AU1-mTOR, pcDNA33HARaptor, pcDNA33HA-mLST8, and pCMV-Tag3APHAS-I (FIG. 11A). After 18 h the cells were incubated for 1 h with increasing concentrations of FTS before extracts were prepared. A sample of each extract was subjected to SDS-PAGE and immunoblotted to detect PHAS-I or PThr^36/45. AU1-mTOR was also immunoprecipitated from each extract, and immune complexes were subjected to SDSPAGE and immunoblotted with mTAb2, to detect mTOR, and with anti-HA antibodies, to detect HA-mLST8 and HA-raptor. Nontransfected 293T cells were incubated with increasing concentrations of FTS for 1 h before extracts were prepared. mTOR was immunoprecipitated with mTAb1, and samples were subjected to SDS-PAGE.
# (§3) FIGS. 12A & 12B represent data showing the effects of incubating cells with increasing concentrations of FTS and GTS on mTOR activity and mTOR association with raptor and mLST8. AU1-mTOR, HA-raptor, and HAmLST8 were overexpressed in 293T cells. The cells were then incubated for 1 h with increasing concentrations of FTS (●, ▴, ▪) or GTS (∘, Δ, □) before extracts were prepared. Immunoprecipitations were then conducted with anti-AU1 antibodies. mTOR kinase activity (●, ∘) was determined by measuring ^32P incorporation into [His^6]PHAS-I in immune complex kinases assays performed with [γ-^32P]ATP. The relative amounts of HA-raptor (▴, Δ) and HA-mLST8 (▪, □) that coimmunoprecipitated with AU1-mTOR were determined after immunoblotting with anti-HA antibodies. The results (mean values±S.E. from 3 experiments) are expressed as percentages of the mTOR activity (FIG. 12A) or coimmunoprecipitating proteins (FIG. 12B) from samples incubated without FTS or GTS, and have been corrected for the amounts of AU1-mTOR immunoprecipitated.
# To investigate further the inhibitory effects of FTS on mTOR signaling, the effect of the drug on the association of mTOR, raptor, and mLST8 was determined. AU1-mTOR and HA-tagged forms of raptor and mLST8 were overexpressed in 293T cells, which were then incubated with increasing concentrations of FTS before AU1-mTOR was immunoprecipitated with anti-AU1 antibodies. Immunoblots were prepared with anti-HA antibodies to assess the relative amounts of HA-raptor and HA-mLST8 that coimmunoprecipitated with AU 1-mTOR (FIG. 11A).
# Results obtained with overexpressed proteins are not necessarily representative of responses of endogenous proteins. Therefore, experiments were conducted to investigate the effect FTS on the endogenous TORC1 in nontransfected cells. […]
# [8] = target: T1, mTOR (Rattus norvegicus, UniProt P42346); experiment: Immune complex assay of mTOR activity after incubating 293T cells with compound; format: cell-based; conditions: 293T cells incubated with 200 μM
# T1 construct: expressed in transfected cells; host or cells: 293T
# Method: as §3
# FIG. 12A presents results of immune complex kinases assays with AU1-mTOR from extracts of 293T cells that had been incubated with increasing concentrations of FTS.
# Immune complex assay of mTOR activity—AU1-mTOR was immunoprecipitated by using anti-AU1 antibody bound to protein G-agarose beads as described previously (McMahon, et al., (2002) Mol. Cell. Biol. 22, 7428-7438). Endogenous mTOR was immunoprecipitated in the same manner, except that mTAb1 was used instead of anti-AU1 antibody. To measure kinase activity, exhaustively washed immune complexes were suspended in 20 μl of Buffer A (50 mM NaCl, 0.1 mM EGTA, 1 mM dithiothreitol (DTT), […], 10 mM Na-HEPES, and 50 mM β-glycerophosphate, pH 7.4.). The kinase reactions were initiated by adding 20 μl of Buffer A supplemented with 2 mM [γ-^32P]ATP, 20 mM MnCl2 and 40 μg/ml of [His^6]PHAS-I. In experiments in which the effects of wortmannin were investigated, DTT was omitted from the reactions, and [His^6]PHAS-I that had been reduced and alkylated with N-ethylmaleimide was used as substrate. Reactions were terminated after 10 min at 30° by adding SDS sample buffer. Samples were subjected to SDS-PAGE and the relative amounts of ^32P incorporated into [His^6]PHAS-I were determined.
# [9] = tested on: MCF-7 cells; experiment: Estradiol dose response of growth, wild type MCF-7 cells; format: cell-based, human; conditions: TGF alpha 10 ng/ml
# Method: As further evidence of the role of MAP kinase, PD 98059 was administered to LTED cells and its effect on level of sensitivity to estradiol was examined.
# To investigate whether the MAP and P13 kinase pathways have a role in estradiol induced cell proliferation, the following experiments were conducted. […] Blockade of this effect was obtained with the MAPK inhibitor PD98059. Administration of TGF at a dose of 10 ng/ml caused a 2-log shift to the left in the ability of estradiol to stimulate the growth of wild-type MCF-7 cells. […] Dual inhibition of PI3K with LY40029 and MAPK with U0126 shifted the level of sensitivity to estradiol more dramatically, by more than 2 logs to the right. On the basis of these observations, it is believed that adaptive hypersensitivity involves the joint activation of the PI3K and MAPK pathways.
compound,measurement,setting,value
"O=c1cc(N2CCOCC2)oc2c(-c3ccccc3)cccc12 [LY 294002, reference compound]",EGF-induced ERK1/2 MAP kinase phosphorylation,[1],did not inhibit
CC(C)(C)n1nc(-c2ccc(Cl)cc2)c2c(N)ncnc21 [PP2],E2-induced Shc phosphorylation,[2],effectively inhibited
N#CC(=C(/N)Sc1ccccc1N)/C(C#N)=C(\N)Sc1ccccc1N [U 0126],incorporation of tritiated thymidine into DNA,[3],block the incorporation
"C[C@]12CC[C@@H]3c4ccc(O)cc4CC[C@H]3[C@@H]1CC[C@@H]2O [estradiol, reference compound]",increase of cell number compared with the vehicle control,[4],8 fold
same,concentration of maximal stimulation of MAP kinase phosphorylation,[5],10^−10 M
same,increase of [3H] thymidine incorporation compared to control level,[6],2.6 fold
O=c1c(-c2ccc(O)cc2)coc2cc(O)cc(O)c12 [genestein],incorporation of tritiated thymidine into DNA,[3],block tritiated thymidine uptake
CC[C@H](C)C(=O)O[C@H]1CCC=C2C=C[C@H](C)[C@H](CC[C@@H]3C[C@@H](O)CC(=O)O3)[C@H]21 [mevastatin],incorporation of tritiated thymidine into DNA,[3],block tritiated thymidine uptake
"CO[C@H]1C[C@@H]2CC[C@@H](C)[C@@](O)(O2)C(=O)C(=O)N2CCCC[C@H]2C(=O)O[C@H]([C@H](C)C[C@@H]2CC[C@@H](O)[C@H](OC)C2)CC(=O)[C@H](C)/C=C(\C)[C@@H](O)[C@@H](OC)C(=O)[C@H](C)C[C@H](C)/C=C/C=C/C=C/1C [rapamycin, reference compound]",EGF-induced ERK1/2 MAP kinase phosphorylation,[1],did not inhibit
"O=C([O-])c1ccccc1O.[Na+] [sodium salicylate, reference compound]",association of mTOR and raptor,[7],without effect
same,mTOR activity,[8],without effect
TGF alpha: growth factor used to activate MAP kinase in wild type MCF-7 cells,shift to the left of estradiol dose response for growth,[9],two log shift to the left
same,shift to the left of estradiol dose response for growth,[9]; listed as TGF,2 log
